We go through 23 molecules from US11304946B2, “2-hetarylpyrimidine-4-carboxamides as aryl hydrocarbon receptor antagonists” (Bayer Aktiengesellschaft, priority 2017, dated 2022).

One may read the pIC50 as the IC50 on a negative log10 scale, so that one unit is a factor of ten.

pIC50: −log10 of the molar value.

This assay addresses T1, Human AhR (Homo sapiens, UniProt P35869).
T1 construct: host or cells: U87 glioblastoma cells, stably transfected with DRE-driven firefly luciferase and constitutive renilla reporter constructs
T1 sequence (P35869 11-848): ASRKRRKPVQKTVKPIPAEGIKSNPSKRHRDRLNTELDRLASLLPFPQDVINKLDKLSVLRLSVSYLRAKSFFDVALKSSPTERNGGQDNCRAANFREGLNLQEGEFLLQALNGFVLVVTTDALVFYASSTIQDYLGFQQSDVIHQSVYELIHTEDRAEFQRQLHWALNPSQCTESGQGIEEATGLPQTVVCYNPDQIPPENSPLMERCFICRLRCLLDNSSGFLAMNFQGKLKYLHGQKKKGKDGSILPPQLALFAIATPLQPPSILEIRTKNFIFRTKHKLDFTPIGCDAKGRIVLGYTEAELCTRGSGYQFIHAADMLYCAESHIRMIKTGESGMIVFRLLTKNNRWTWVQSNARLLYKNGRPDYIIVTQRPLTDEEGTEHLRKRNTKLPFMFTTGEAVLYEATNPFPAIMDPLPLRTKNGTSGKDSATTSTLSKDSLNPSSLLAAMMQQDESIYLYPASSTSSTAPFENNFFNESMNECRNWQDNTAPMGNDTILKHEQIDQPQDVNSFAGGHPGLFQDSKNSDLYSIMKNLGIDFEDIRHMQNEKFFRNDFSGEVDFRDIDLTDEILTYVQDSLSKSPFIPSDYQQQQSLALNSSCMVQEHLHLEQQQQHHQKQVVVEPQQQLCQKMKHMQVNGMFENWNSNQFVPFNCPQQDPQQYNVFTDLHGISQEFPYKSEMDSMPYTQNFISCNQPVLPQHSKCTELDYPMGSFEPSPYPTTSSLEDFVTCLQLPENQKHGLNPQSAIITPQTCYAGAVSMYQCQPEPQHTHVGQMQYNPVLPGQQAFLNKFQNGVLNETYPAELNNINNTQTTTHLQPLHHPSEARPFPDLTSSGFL
The assay can be described thus: Transactivation assay in human cell line (in vitro assay 1: antagonism). The class given is cell-based. As to conditions: U87 glioblastoma cells, AHR inducible (DRE) firefly luciferase reporter, 150 μM kynurenic acid, 20 hours. As to the method: Transactivation Assay in Human Cell Line (In Vitro Assay 1)
Transactivation assay was carried out in U87 glioblastoma cells (ATCC) endogenously expressing AHR. In addition the cells were stably transfected with an AHR inducible firefly luciferase reporter gene construct that carried AHR-binding sites (DRE) in its promoter and a renilla reporter gene construct with constitutively active promoter. Kynurenic acid is an endogenous AHR activating ligand and was used to prestimulate test cells prior to testing the antagonistic properties of compounds.
In Vitro Assay 1: Antagonism in Human Cell Line
Firefly luciferase and Renilla activity was determined by the DualGlo Luciferase Assay System (Promega, #2920). Renilla activity was used to assess toxic effects of compounds.
Background: Reporter assays use an easily measured gene product as a stand-in for the process of interest.
`Cn1cc(-c2nc(C(=O)N[C@H]3CCC[C@H]3O)cc(-c3ccc(OC(F)(F)F)cc3)n2)cn1` (relative stereo) [Example 91, N-[(cis)-2-hydroxycyclopentyl]-2-(1-methyl-1H-pyrazol-4-yl)-6-[4-(trifluoromethoxy)phenyl]pyrimidine-4-carboxamide] showed a pIC50 of 8.80.

As for `Cn1cc(-c2nc(C(=O)N[C@@H]3CS(=O)(=O)C[C@@H]3O)cc(-c3ccc(OC(F)(F)F)cc3)n2)cn1` (relative stereo) [Example 98, N-[(cis)-4-hydroxy-1,1-dioxo-1lambda^6-thiolan-3-yl]-2-(1-methyl-1H-pyrazol-4-yl)-6-[4-(trifluoromethoxy)phenyl]pyrimidine-4-carboxamide], the pIC50 is 7.69.

As for `Cn1cc(-c2nc(C(=O)N[C@H]3CC[C@H]3O)cc(-c3ccc(OC(F)(F)F)cc3)n2)cn1` (relative stereo) [Example 107, N-[(cis)-2-hydroxycyclobutyl]-2-(1-methyl-1H-pyrazol-4-yl)-6-[4-(trifluoromethoxy)phenyl]pyrimidine-4-carboxamide], the pIC50 is 8.34. Compared with the last molecule, the pIC50 is 0.65 log units higher.

The molecule `COc1ccc(-c2nc(C(=O)NCC(C)(C)O)cc(-c3ccc(OC(F)(F)F)cc3)n2)cn1` [Example 14, N-(2-hydroxy-2-methylpropyl)-2-(6-methoxypyridin-3-yl)-6-[4-(trifluoromethoxy)phenyl]pyrimidine-4-carboxamide] gave a pIC50 of 6.51.

`CC(C)(O)CNC(=O)c1cc(-c2ccc(OC(F)(F)F)cc2)nc(-c2cnc(C#N)nc2)n1` [Example 23, 2′-cyano-N-(2-hydroxy-2-methylpropyl)-6-[4-(trifluoromethoxy)phenyl][2,5′-bipyrimidine]-4-carboxamide] showed a pIC50 of under 4.70.

`CC(C)(O)CNC(=O)c1cc(-c2ccc(OC(F)(F)F)cc2)nc(-c2cnn(C3CC3)c2)n1` [Example 26, 2-(1-cyclopropyl-1H-pyrazol-4-yl)-N-(2-hydroxy-2-methylpropyl)-6-[4-(trifluoromethoxy)phenyl]pyrimidine-4-carboxamide] showed a pIC50 of 5.40.

In turn, `COc1ccc(-c2nc(C(=O)N[C@@H](C)CO)cc(-c3ccc(OC(F)(F)F)cc3)n2)cn1` [Example 27, N-[(2S)-1-hydroxypropan-2-yl]-2-(6-methoxypyridin-3-yl)-6-[4-(trifluoromethoxy)phenyl]pyrimidine-4-carboxamide] showed a pIC50 of 6.36. This pIC50 lies 0.96 log units higher than the previous one.

The molecule `Cc1cscc1-c1nc(C(=O)N[C@@H](C)CO)cc(-c2ccc(OC(F)(F)F)cc2)n1` [Example 29, N-[(2S)-1-hydroxypropan-2-yl]-2-(4-methylthiophen-3-yl)-6-[4-(trifluoromethoxy)phenyl]pyrimidine-4-carboxamide] showed a pIC50 of 7.82.

Turning to `C[C@@H](CO)NC(=O)c1cc(-c2ccc(OC(F)(F)F)cc2)nc(-c2cccs2)n1` [Example 30, N-[(2S)-1-hydroxypropan-2-yl]-2-(thiophen-2-yl)-6-[4-(trifluoromethoxy)phenyl]pyrimidine-4-carboxamide], the pIC50 is 8.20. This pIC50 lies 0.38 log units higher than the previous one.

Turning to `C[C@@H](CO)NC(=O)c1cc(-c2ccc(OC(F)(F)F)cc2)nc(-c2ccsc2)n1` [Example 31, N-[(2S)-1-hydroxypropan-2-yl]-2-(thiophen-3-yl)-6-[4-(trifluoromethoxy)phenyl]pyrimidine-4-carboxamide], the pIC50 is 7.84.

For the molecule `Cc1ccsc1-c1nc(C(=O)N[C@@H](C)CO)cc(-c2ccc(OC(F)(F)F)cc2)n1` [Example 33, N-[(2S)-1-hydroxypropan-2-yl]-2-(3-methylthiophen-2-yl)-6-[4-(trifluoromethoxy)phenyl]pyrimidine-4-carboxamide], the pIC50 was 8.03. This pIC50 and that of the molecule before are within 0.2 log units of each other.

Take `C[C@@H](CO)NC(=O)c1cc(-c2ccc(OC(F)(F)F)cc2)nc(-c2ccc(C#N)nc2)n1` [Example 38, 2-(6-cyanopyridin-3-yl)-N-[(2S)-1-hydroxypropan-2-yl]-6-[4-(trifluoromethoxy)phenyl]pyrimidine-4-carboxamide]: the negative logarithm of the IC50 (pIC50) was 5.35.

`Cc1ncc(-c2nc(C(=O)N[C@@H](C)CO)cc(-c3ccc(OC(F)(F)F)cc3)n2)cn1` [Example 42, N-[(2S)-1-hydroxypropan-2-yl]-2′-methyl-6-[4-(trifluoromethoxy)phenyl][2,5′-bipyrimidine]-4-carboxamide] gave a pIC50 of 6.92. Compared with the last molecule, the pIC50 is 1.57 log units higher.

As to `C[C@@H](CO)NC(=O)c1cc(-c2ccc(OC(F)(F)F)cc2)nc(-c2cnn(C3CC3)c2)n1` [Example 44, 2-(1-cyclopropyl-1H-pyrazol-4-yl)-N-[(2S)-1-hydroxypropan-2-yl]-6-[4-(trifluoromethoxy)phenyl]pyrimidine-4-carboxamide], the pIC50 was 6.01.

Molecule `Cc1cn[nH]c1-c1nc(C(=O)N[C@@H](C)CO)cc(-c2ccc(OC(F)(F)F)cc2)n1` [Example 45, N-[(2S)-1-hydroxypropan-2-yl]-2-(4-methyl-1H-pyrazol-5-yl)-6-[4-(trifluoromethoxy)phenyl]pyrimidine-4-carboxamide] showed a pIC50 of 7.24.

On to `COc1ccc(-c2nc(C(=O)NCC(C)(C)O)cc(-c3ccc(Cl)cc3)n2)cn1` [Example 46, 6-(4-chlorophenyl)-N-(2-hydroxy-2-methylpropyl)-2-(6-methoxypyridin-3-yl)pyrimidine-4-carboxamide], for which the pIC50 was 6.37.

With `C[C@@H](CO)NC(=O)c1cc(-c2ccc(Cl)cc2)nc(-c2cccs2)n1` [Example 50, 6-(4-chlorophenyl)-N-[(2S)-1-hydroxypropan-2-yl]-2-(thiophen-2-yl)pyrimidine-4-carboxamide], the pIC50 is 8.23.

In turn, `Cc1noc(C)c1-c1nc(C(=O)NCC(C)(C)O)cc(-c2ccc(Cl)cc2)n1` [Example 56, 6-(4-chlorophenyl)-2-(3,5-dimethyl-1,2-oxazol-4-yl)-N-(2-hydroxy-2-methylpropyl)pyrimidine-4-carboxamide] had a pIC50 of 6.02.

`CC(C)(O)CNC(=O)c1cc(-c2ccc(Cl)cc2)nc(-c2cc[nH]n2)n1` [Example 58, 6-(4-chlorophenyl)-N-(2-hydroxy-2-methylpropyl)-2-(1H-pyrazol-3-yl)pyrimidine-4-carboxamide] gave a pIC50 of 6.48.

The molecule `CC(C)(O)CNC(=O)c1cc(-c2ccc(Cl)cc2)nc(-c2ccc(C#N)nc2)n1` [Example 59, 6-(4-chlorophenyl)-2-(6-cyanopyridin-3-yl)-N-(2-hydroxy-2-methylpropyl)pyrimidine-4-carboxamide] gave a pIC50 of 5.16.

`Cc1n[nH]cc1-c1nc(C(=O)NCC(C)(C)O)cc(-c2ccc(Cl)cc2)n1` [Example 65, 6-(4-chlorophenyl)-N-(2-hydroxy-2-methylpropyl)-2-(3-methyl-1H-pyrazol-4-yl)pyrimidine-4-carboxamide] had a pIC50 of 6.45.

On to `Cc1nn(C)cc1-c1nc(C(=O)NCC(C)(C)O)cc(-c2ccc(Cl)cc2)n1` [Example 66, 6-(4-chlorophenyl)-2-(1,3-dimethyl-1H-pyrazol-4-yl)-N-(2-hydroxy-2-methylpropyl)pyrimidine-4-carboxamide], for which the pIC50 is 7.30. Compared with the last molecule, the pIC50 is 0.85 log units higher.

In turn, `CC(C)(O)CNC(=O)c1cc(-c2ccc(Cl)cc2)nc(-c2cnc(Cl)nc2)n1` [Example 67, 2′-chloro-6-(4-chlorophenyl)-N-(2-hydroxy-2-methylpropyl)[2,5′-bipyrimidine]-4-carboxamide] showed a pIC50 of 4.90.
